Type in all cases: cell-based
The target of one test is T1, AKT1 WT (Homo sapiens, UniProt P31749).
T1 construct: expressed in transfected cells; host or cells: HEK293
The experiment in a line: Live cell AKT1 WT target engagement by NanoBRET competitive probe displacement. Conditions: HEK293 cells transfected with kinase-NanoLuciferase fusion, 2 h at 37° C. In outline:
(§1)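 Luminescence ratio 600/460 nm served as readout after HEK293 cells bearing transiently expressed kinase–NanoLuciferase fusions were exposed 2 h at 37 °C to test compound alongside an ATP-competitive fluorescent tracer near EC50. Extracellular signal was quenched by a luciferase inhibitor.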
On the technique in general: BRET reads energy transfer from a luciferase to a nearby fluorophore.

For another test, the target named is T2, AKT2 (Homo sapiens, UniProt P31751).
T2 construct: expressed in transfected cells; host or cells: HEK293
Description: Live cell AKT2 target engagement by NanoBRET competitive probe displacement. Conditions: HEK293 cells transfected with kinase-NanoLuciferase fusion, 2 h at 37° C. In outline:
as §1

The next test deals with T3, AKT1 E17K (Homo sapiens, UniProt P31749, E17K).
T3 construct: expressed in transfected cells; host or cells: HEK293
The experiment in a line: Live cell AKT1 E17K target engagement by NanoBRET competitive probe displacement. Conditions: HEK293 cells transfected with kinase-NanoLuciferase fusion, 2 h at 37° C. In outline:
as §1

The subject of test [1] is LAPC4 prostate cancer cells. The experiment in a line: Antiproliferative effects in LAPC4 cells (CellTiter Glo). Conditions: LAPC4 cells (AKT1 E17K allele), read-out: LAPC4 proliferation IC50. In outline: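 IC50 values reflect 72 h compound treatment of cells plated at 1,000 per well, with CellTiter Glo luminescence as the viability read-out.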
A general note: In ATP-based viability assays light output follows the ATP content of the culture.

Molecules are shown by their SMILES. Read-outs that look alike come from different tables or passages of the source. A value given as a limit tells only on which side of the number the result lay.

T1 sequence (P31749 whole entry): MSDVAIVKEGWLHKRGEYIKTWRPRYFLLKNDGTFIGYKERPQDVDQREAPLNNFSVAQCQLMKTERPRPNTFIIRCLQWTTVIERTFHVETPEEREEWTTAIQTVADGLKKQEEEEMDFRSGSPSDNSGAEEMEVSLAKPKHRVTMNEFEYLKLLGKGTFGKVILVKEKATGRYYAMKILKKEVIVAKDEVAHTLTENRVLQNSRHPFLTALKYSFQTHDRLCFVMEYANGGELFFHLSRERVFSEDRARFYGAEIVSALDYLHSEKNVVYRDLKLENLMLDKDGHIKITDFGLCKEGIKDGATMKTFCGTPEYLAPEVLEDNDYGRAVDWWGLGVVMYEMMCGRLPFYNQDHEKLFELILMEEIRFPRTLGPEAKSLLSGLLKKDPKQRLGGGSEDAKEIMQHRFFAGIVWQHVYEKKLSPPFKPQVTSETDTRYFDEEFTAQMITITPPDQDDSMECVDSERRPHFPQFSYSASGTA
T2 sequence (P31751 whole entry): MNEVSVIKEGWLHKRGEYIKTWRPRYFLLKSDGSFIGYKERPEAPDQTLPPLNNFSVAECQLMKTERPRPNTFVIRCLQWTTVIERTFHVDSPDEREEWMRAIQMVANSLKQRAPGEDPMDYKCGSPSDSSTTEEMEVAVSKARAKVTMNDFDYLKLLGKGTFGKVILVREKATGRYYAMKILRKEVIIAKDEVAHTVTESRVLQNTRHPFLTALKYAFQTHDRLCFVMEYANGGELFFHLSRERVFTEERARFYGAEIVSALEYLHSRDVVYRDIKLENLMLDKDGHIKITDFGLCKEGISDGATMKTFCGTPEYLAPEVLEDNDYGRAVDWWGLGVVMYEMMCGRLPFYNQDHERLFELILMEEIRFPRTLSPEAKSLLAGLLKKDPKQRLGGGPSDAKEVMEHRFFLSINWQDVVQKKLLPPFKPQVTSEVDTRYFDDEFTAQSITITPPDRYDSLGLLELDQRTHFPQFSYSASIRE
T3 sequence (P31749 whole entry E17K): as the sequence (P31749 whole entry) above, with E17K counted along it

`C=CC(=O)N1CCC(N[C@H]2CCc3cc(-n4c(-c5cccnc5N)nc5ccc(-n6cccn6)nc54)ccc32)C[C@H]1COC` (single isomer, unassigned) [Example 129, 1-[(2S,4*)-4-{[(1S)-5-[2-(2-aminopyridin-3-yl)-5-(pyrazol-1-yl)imidazo[4,5-b]pyridin-3-yl]-2,3-dihydro-1H-inden-1-yl]amino}-2-(methoxymethyl)piperidin-1-yl]prop-2-en-1-one]: the IC50 at AKT1 WT was 0.115 µM; at AKT2 it was 2.72 µM; on AKT1 E17K, greater than 1 µM; in test [1] (72 h), greater than 10 µM.

Regarding `C=CC(=O)N1CCC(N[C@H]2CCc3cc(-n4c(-c5cccnc5N)nc5ccc(-n6cccn6)nc54)ccc32)C(F)C1` (single isomer, unassigned) [Example 103, 1-((3*,4*)-4-(((S)-5-(2-(2-aminopyridin-3-yl)-5-(1H-pyrazol-1-yl)-3H-imidazo[4,5-b]pyridin-3-yl)-2,3-dihydro-1H-inden-1-yl)amino)-3-fluoropiperidin-1-yl)prop-2-en-1-one], the IC50 is 0.0193 µM on AKT1 WT, 0.547 µM on AKT2, 0.0801 µM at AKT1 E17K and 0.317 µM in test [1] (72 h).

Consider `C=CC(=O)N1CCC(N[C@H]2CCc3cc(-n4c(-c5cccnc5N)nc5ccc(-n6cccn6)nc54)ccc32)C(F)C1` (single isomer, unassigned) [Example 106, 1-((3*,4*)-4-(((S)-5-(2-(2-aminopyridin-3-yl)-5-(1H-pyrazol-1-yl)-3H-imidazo[4,5-b]pyridin-3-yl)-2,3-dihydro-1H-inden-1-yl)amino)-3-fluoropiperidin-1-yl)prop-2-en-1-one], for which the IC50 on AKT1 WT came out at 0.00385 µM; at AKT2, 0.12 µM; at AKT1 E17K it was 0.0203 µM; in test [1] (72 h), 0.093 µM.

Regarding `C=CC(=O)N1CCC(N[C@H]2CCc3cc(-n4c(-c5cccnc5N)nc5ccc(-n6cccn6)nc54)ccc32)CC12CCC2` (single isomer, unassigned) [Example 93, 1-((*)-8-(((S)-5-(2-(2-aminopyridin-3-yl)-5-(1H-pyrazol-1-yl)-3H-imidazo[4,5-b]pyridin-3-yl)-2,3-dihydro-1H-inden-1-yl)amino)-5-azaspiro[3.5]nonan-5-yl)prop-2-en-1-one], the IC50 was found to be 0.00563 µM on AKT1 WT, 0.0114 µM at AKT2, 0.00616 µM at AKT1 E17K and 0.00502 µM in test [1] (72 h).

For the compound `C=CC(=O)N1CCC(N[C@H]2CCc3cc(-n4c(-c5cccnc5N)nc5ccc(-n6cccn6)nc54)ccc32)C(C)(F)C1` (stereo partly drawn) [Example 308, 1-((3*)-4-(((S)-5-(2-(2-aminopyridin-3-yl)-5-(1H-pyrazol-1-yl)-3H-imidazo[4,5-b]pyridin-3-yl)-2,3-dihydro-1H-inden-1-yl)amino)-3-fluoro-3-methylpiperidin-1-yl)prop-2-en-1-one], the IC50 worked out at 0.307 µM at AKT1 WT; 0.0623 µM on AKT2; 0.0118 µM on AKT1 E17K; 0.3 µM in test [1] (Homo sapiens, LAPC4, 72 h).

Turning to `C=CC(=O)N1CCC(N[C@H]2CCc3cc(-n4c(-c5cccnc5N)nc5ccc(-n6nccn6)nc54)ccc32)CC1` [Example 33, 1-(4-{[(1S)-5-[2-(2-aminopyridin-3-yl)-5-(1,2,3-triazol-2-yl)imidazo[4,5-b]pyridin-3-yl]-2,3-dihydro-1H-inden-1-yl]amino}piperidin-1-yl)prop-2-en-1-one], the IC50 at AKT1 WT came out at 0.0212 µM; on AKT2 it was 0.152 µM; at AKT1 E17K, 0.0207 µM; in test [1] (Homo sapiens, LAPC4, 72 h), 0.052 µM.

For the compound `C=CC(=O)N1CCC(N[C@H]2CCc3cc(-n4c(-c5cccnc5N)nc5ccc(N6CCN(C)CC6)nc54)ccc32)CC1` [Example 259, 1-(4-{[(1S)-5-[2-(2-aminopyridin-3-yl)-5-(4-methylpiperazin-1-yl)imidazo[4,5-b]pyridin-3-yl]-2,3-dihydro-1H-inden-1-yl]amino}piperidin-1-yl)prop-2-en-1-one], the IC50 was found to be 3.29 µM on AKT1 WT; 0.968 µM at AKT2; 0.15 µM on AKT1 E17K; 1.52 µM in test [1] (Homo sapiens, LAPC4, 72 h).

Take `C=CC(=O)N1CCC(N[C@H]2CCc3cc(-n4c(-c5cccnc5N)nc5ccc(C6CC6)nc54)ccc32)C[C@H]1C` (single isomer, unassigned) [Example 210, 1-((2R,4*)-4-(((S)-5-(2-(2-aminopyridin-3-yl)-5-cyclopropyl-3H-imidazo[4,5-b]pyridin-3-yl)-2,3-dihydro-1H-inden-1-yl)amino)-2-methylpiperidin-1-yl)prop-2-en-1-one]: the IC50 came out at 0.919 µM at AKT1 WT; 0.272 µM at AKT2; 0.0168 µM on AKT1 E17K; 0.38 µM in test [1] (Homo sapiens, LAPC4, 72 h).

Consider `C=C(F)C(=O)Nc1cnn(C)c1C(=O)N[C@H]1CCc2cc(-n3c(-c4cccnc4N)nc4ccc(-n5cccn5)nc43)ccc21` [Example 35, (S)-N-(5-(2-(2-aminopyridin-3-yl)-5-(1H-pyrazol-1-yl)-3H-imidazo[4,5-b]pyridin-3-yl)-2,3-dihydro-1H-inden-1-yl)-4-(2-fluoroacrylamido)-1-methyl-1H-pyrazole-5-carboxamide], for which the IC50 at AKT1 WT is 0.243 µM; on AKT2, 2.94 µM; at AKT1 E17K, greater than 1 µM; in test [1] (Homo sapiens, LAPC4, 72 h), 5.66 µM.

Take `C=CC(=O)N1CCC(N[C@H]2CCc3cc(-n4c(-c5cccnc5N)nc5ccc(-n6cccn6)nc54)ccc32)C(C#N)C1` (single isomer, unassigned) [Example 155, (3*,4*)-1-acryloyl-4-(((S)-5-(2-(2-aminopyridin-3-yl)-5-(1H-pyrazol-1-yl)-3H-imidazo[4,5-b]pyridin-3-yl)-2,3-dihydro-1H-inden-1-yl)amino)piperidine-3-carbonitrile]: the IC50 was 0.0836 µM at AKT1 WT, 1.23 µM at AKT2, greater than 1 µM at AKT1 E17K and 0.49 µM in test [1] (72 h).

On to `C=CC(=O)N1CCC(N[C@H]2CCc3cc(-n4c(-c5cccnc5N)nc5ccc(-c6ncc(C)o6)nc54)ccc32)CC1` [Example 255, 1-(4-{[(1S)-5-[2-(2-aminopyridin-3-yl)-5-(5-methyl-1,3-oxazol-2-yl)imidazo[4,5-b]pyridin-3-yl]-2,3-dihydro-1H-inden-1-yl]amino}piperidin-1-yl)prop-2-en-1-one], for which the IC50 on AKT1 WT is 0.547 µM; on AKT2, 0.177 µM; at AKT1 E17K it was 0.0332 µM; in test [1] (Homo sapiens, LAPC4, 72 h), 0.214 µM.

Turning to `C=C(F)C(=O)N1CCc2c(C(=O)N[C@H]3CCc4cc(-n5c(-c6cccnc6N)nc6ccc(-n7cccn7)nc65)ccc43)cccc21` [Example 18, (S)-N-(5-(2-(2-aminopyridin-3-yl)-5-(1H-pyrazol-1-yl)-3H-imidazo[4,5-b]pyridin-3-yl)-2,3-dihydro-1H-inden-1-yl)-1-(2-fluoroacryloyl)indoline-4-carboxamide], the IC50 at AKT1 WT was found to be 0.0615 µM; at AKT2, 0.208 µM; at AKT1 E17K it was 0.243 µM; in test [1] (Homo sapiens, LAPC4, 72 h) it was 1.57 µM.

`C=CS(=O)(=O)Nc1ccccc1C(=O)N[C@H]1CCc2cc(-n3c(-c4cccnc4N)nc4ccc(-n5cccn5)nc43)ccc21` [Example 24, (S)-N-(5-(2-(2-aminopyridin-3-yl)-5-(1H-pyrazol-1-yl)-3H-imidazo[4,5-b]pyridin-3-yl)-2,3-dihydro-1H-inden-1-yl)-2-(vinylsulfonamido)benzamide]: the IC50 on AKT1 WT is 0.012 µM; on AKT2, 0.0379 µM; at AKT1 E17K it was 0.0141 µM; in test [1] (Homo sapiens, LAPC4, 72 h), 0.238 µM.

Turning to `C=CC(=O)N1CCC(N[C@H]2CCc3cc(-n4c(-c5cccnc5N)nc5ccc(-c6cnn(C(F)F)c6)nc54)ccc32)CC1` [Example 187, 1-(4-{[(1S)-5-[2-(2-aminopyridin-3-yl)-5-[1-(difluoromethyl)pyrazol-4-yl]imidazo[4,5-b]pyridin-3-yl]-2,3-dihydro-1H-inden-1-yl]amino}piperidin-1-yl)prop-2-en-1-one], the IC50 amounted to 0.0464 µM at AKT1 WT; 0.0287 µM at AKT2; 0.0073 µM at AKT1 E17K; 0.0644 µM in test [1] (Homo sapiens, LAPC4, 72 h).

As to `C=CC(=O)N1CCC(N[C@H]2CCc3cc(-n4c(-c5cccnc5N)nc5ccc(-c6nnc(C)o6)nc54)ccc32)CC1` [Example 256, (S)-1-(4-((5-(2-(2-aminopyridin-3-yl)-5-(5-methyl-1,3,4-oxadiazol-2-yl)-3H-imidazo[4,5-b]pyridin-3-yl)-2,3-dihydro-1H-inden-1-yl)amino)piperidin-1-yl)prop-2-en-1-one], the IC50 at AKT1 WT was determined as 1.69 µM; on AKT2, 0.394 µM; on AKT1 E17K, 0.186 µM; in test [1] (Homo sapiens, LAPC4, 72 h), 0.809 µM.

On to `C=CC(=O)N1CCC(N[C@H]2CCc3cc(-n4c(-c5cccnc5N)nc5ccc(C6CC6)nc54)ccc32)C(C)C1` (single isomer, unassigned) [Example 231, 1-((3*,4*)-4-(((S)-5-(2-(2-aminopyridin-3-yl)-5-cyclopropyl-3H-imidazo[4,5-b]pyridin-3-yl)-2,3-dihydro-1H-inden-1-yl)amino)-3-methylpiperidin-1-yl)prop-2-en-1-one], for which the IC50 at AKT1 WT is 1.22 µM; on AKT2, 0.174 µM; at AKT1 E17K, 0.0748 µM; in test [1] (72 h), 0.398 µM.

For the origin of these results see patent US12570655B2, “Cysteine covalent modifiers of AKT1 and uses thereof” (Terremoto Biosciences, Inc., priority 2023, dated 2026).
